Assay results from ChEMBL document CHEMBL1201861, “Genomics of Drug Sensitity in Cancer screening data, Wellcome Trust Sanger Institute”.

Experiments:
Test in all cases: cells
COLO-800 = type: functional, cell-based, Homo sapiens; settings: Homo sapiens, COLO-800;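 note: growth inhibition of COLO-800 cells, read out with a cell viability assay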
Description: SANGER: Inhibition of human COLO-800 cell growth in a cell viability assay.

COLO-824 = type: functional, cell-based, Homo sapiens; settings: Homo sapiens, COLO-824
Description: SANGER: Inhibition of human COLO-824 cell growth in a cell viability assay.

COR-L88 = type: functional, cell-based, Homo sapiens; settings: Homo sapiens, COR-L88;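 note: growth inhibition of COR-L88 cells, read out with a cell viability assay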
Description: SANGER: Inhibition of human COR-L88 cell growth in a cell viability assay.

CW-2 = type: functional, cell-based, Homo sapiens; settings: Homo sapiens, CW-2;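 note: growth inhibition of CW-2 cells, read out by a cell viability assay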
Description: SANGER: Inhibition of human CW-2 cell growth in a cell viability assay.

DB = type: functional, cell-based, Homo sapiens; settings: Homo sapiens, DB
Description: SANGER: Inhibition of human DB cell growth in a cell viability assay.

ES7 = type: functional, cell-based, Homo sapiens; settings: Homo sapiens, ES7;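 note: growth inhibition of cultured human ES7 cells, read out as cell viability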
Description: SANGER: Inhibition of human ES7 cell growth in a cell viability assay.

EW-11 = type: functional, cell-based, Homo sapiens; settings: Homo sapiens, EW-11;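 note: growth inhibition of human EW-11 cells, measured with a cell viability assay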
Description: SANGER: Inhibition of human EW-11 cell growth in a cell viability assay.

EW-13 = type: functional, cell-based, Homo sapiens; settings: Homo sapiens, EW-13; read-out: IC50;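 note: growth inhibition of EW-13 cells, read out with a cell viability assay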
Description: SANGER: Inhibition of human EW-13 cell growth in a cell viability assay.

GI-ME-N = type: functional, cell-based, Homo sapiens; settings: Homo sapiens, GI-ME-N;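 note: growth inhibition of human GI-ME-N cells, read out with a cell viability assay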
Description: SANGER: Inhibition of human GI-ME-N cell growth in a cell viability assay.

GOTO = type: functional, cell-based, Homo sapiens; settings: Homo sapiens, GOTO;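 note: growth inhibition of GOTO cells, read out by a cell viability assay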
Description: SANGER: Inhibition of human GOTO cell growth in a cell viability assay.

GR-ST = type: functional, cell-based, Homo sapiens; settings: Homo sapiens, GR-ST
Description: SANGER: Inhibition of human GR-ST cell growth in a cell viability assay.

HCC2218 = type: functional, cell-based, Homo sapiens; settings: Homo sapiens, HCC2218;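 note: cell viability assay read-out, with IC50 given as the concentration that inhibits growth of the cell line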
Description: SANGER: Inhibition of human HCC2218 cell growth in a cell viability assay.

HCE-T = type: functional, cell-based, Homo sapiens; settings: Homo sapiens, HCE-T;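 note: cell viability assay read-out, reporting inhibition of HCE-T cell growth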
Description: SANGER: Inhibition of human HCE-T cell growth in a cell viability assay.

HD-MY-Z = type: functional, cell-based, Homo sapiens; settings: Homo sapiens, HD-MY-Z;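 note: growth inhibition of HD-MY-Z cells, read out with a cell viability assay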
Description: SANGER: Inhibition of human HD-MY-Z cell growth in a cell viability assay.

HH = type: functional, cell-based, Homo sapiens; settings: Homo sapiens, HH
Description: SANGER: Inhibition of human HH cell growth in a cell viability assay.

HT-144 = type: functional, cell-based, Homo sapiens; settings: Homo sapiens, HT-144
Description: SANGER: Inhibition of human HT-144 cell growth in a cell viability assay.

K562 = type: functional, cell-based, Homo sapiens; settings: Homo sapiens, K562
Description: SANGER: Inhibition of human K-562 cell growth in a cell viability assay.

KM-H2 = type: functional, cell-based, Homo sapiens; settings: Homo sapiens, KM-H2;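 note: growth inhibition of KM-H2 cells, read out by a cell viability assay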
Description: SANGER: Inhibition of human KM-H2 cell growth in a cell viability assay.

KNS-42 = type: functional, cell-based; settings: Homo sapiens;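 note: growth inhibition of KNS-42 cells, read out with a cell viability assay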
Description: SANGER: Inhibition of human KNS-42 cell growth in a cell viability assay.

KP-N-YS = type: functional, cell-based, Homo sapiens; settings: Homo sapiens, KP-N-YS;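 note: cell viability assay measuring inhibition of cell line growth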
Description: SANGER: Inhibition of human KP-N-YS cell growth in a cell viability assay.

LB2241-RCC = type: functional, cell-based, Homo sapiens; settings: Homo sapiens, LB2241-RCC;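 note: cell viability assay measuring how strongly the cultured human renal carcinoma line is prevented from growing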
Description: SANGER: Inhibition of human LB2241-RCC cell growth in a cell viability assay.

Lu-65 = type: functional, cell-based, Homo sapiens; settings: Homo sapiens, Lu-65;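 note: growth inhibition of Lu-65 cancer cells, read out by a cell viability assay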
Description: SANGER: Inhibition of human LU-65 cell growth in a cell viability assay.

LXF-289 cell line = type: functional, cell-based; settings: Homo sapiens
Description: SANGER: Inhibition of human LXF-289 cell growth in a cell viability assay.

MHH-NB-11 = type: functional, cell-based, Homo sapiens; settings: Homo sapiens, MHH-NB-11;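 note: growth inhibition of human MHH-NB-11 cells, read out by a cell viability assay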
Description: SANGER: Inhibition of human MHH-NB-11 cell growth in a cell viability assay.

MLMA = type: functional, cell-based, Homo sapiens; settings: Homo sapiens, MLMA;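 note: growth inhibition of MLMA cells (human), determined through a cell viability readout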
Description: SANGER: Inhibition of human MLMA cell growth in a cell viability assay.

MMAC-SF = type: functional, cell-based; settings: Homo sapiens;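 note: growth inhibition of human MMAC-SF cells, read out with a cell viability assay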
Description: SANGER: Inhibition of human MMAC-SF cell growth in a cell viability assay.

MPP-89 = type: functional, cell-based, Homo sapiens; settings: Homo sapiens, MPP-89;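 note: growth inhibition of human MPP-89 cells, read out with a cell viability assay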
Description: SANGER: Inhibition of human MPP-89 cell growth in a cell viability assay.

MSTO-211H = type: functional, cell-based, Homo sapiens; settings: Homo sapiens, MSTO-211H
Description: SANGER: Inhibition of human MSTO-211H cell growth in a cell viability assay.

NB5 = type: functional, cell-based, Homo sapiens; settings: Homo sapiens, NB5;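 note: growth inhibition of NB5 cells, read out as cell viability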
Description: SANGER: Inhibition of human NB5 cell growth in a cell viability assay.

NCI-H1304 = type: functional, cell-based, Homo sapiens; settings: Homo sapiens, NCI-H1304;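 note: growth inhibition of the cancer cell line, measured in a cell viability assay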
Description: SANGER: Inhibition of human NCI-H1304 cell growth in a cell viability assay.

NCI-H1838 = type: functional, cell-based, Homo sapiens; settings: Homo sapiens, NCI-H1838;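 note: growth inhibition of NCI-H1838 cells, determined with a cell viability readout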
Description: SANGER: Inhibition of human NCI-H1838 cell growth in a cell viability assay.

NCI-H209 = type: functional, cell-based, Homo sapiens; settings: Homo sapiens, NCI-H209;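 note: growth inhibition of human NCI-H209 cells, measured by a cell viability assay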
Description: SANGER: Inhibition of human NCI-H209 cell growth in a cell viability assay.

NCI-H23 = type: functional, cell-based, Homo sapiens; settings: Homo sapiens, NCI-H23;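 note: cell viability assay measuring growth inhibition of NCI-H23 cells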
Description: SANGER: Inhibition of human NCI-H23 cell growth in a cell viability assay.

NCI-H446 = type: functional, cell-based, Homo sapiens; settings: Homo sapiens, NCI-H446;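 note: growth inhibition of NCI-H446 cells determined by a cell viability assay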
Description: SANGER: Inhibition of human NCI-H446 cell growth in a cell viability assay.

NCI-H747 = type: functional, cell-based, Homo sapiens; settings: Homo sapiens, NCI-H747;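 note: growth inhibition of human NCI-H747 cells, read out by a cell viability assay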
Description: SANGER: Inhibition of human NCI-H747 cell growth in a cell viability assay.

NCI-N87 = type: functional, cell-based; settings: Homo sapiens;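 note: growth inhibition of human NCI-N87 cells, read out with a cell viability assay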
Description: SANGER: Inhibition of human NCI-N87 cell growth in a cell viability assay.

SNU1 = type: functional, cell-based, Homo sapiens; settings: Homo sapiens, SNU1;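 note: growth inhibition of human NCI-SNU-1 cells, measured with a cell viability assay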
Description: SANGER: Inhibition of human NCI-SNU-1 cell growth in a cell viability assay.

SNU-5 = type: functional, cell-based, Homo sapiens; settings: Homo sapiens, SNU-5;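 note: cell viability readout used to measure growth inhibition in human NCI-SNU-5 cells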
Description: SANGER: Inhibition of human NCI-SNU-5 cell growth in a cell viability assay.

NH-12 = type: functional, cell-based, Homo sapiens; settings: Homo sapiens, NH-12;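 note: growth inhibition of NH-12 cells, read out with a cell viability assay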
Description: SANGER: Inhibition of human NH-12 cell growth in a cell viability assay.

OMC-1 = type: functional, cell-based, Homo sapiens; settings: Homo sapiens, OMC-1;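 note: growth inhibition of the OMC-1 cell line, measured by a cell viability assay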
Description: SANGER: Inhibition of human OMC-1 cell growth in a cell viability assay.

OS-RC-2 = type: functional, cell-based, Homo sapiens; settings: Homo sapiens, OS-RC-2;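 note: growth inhibition of human OS-RC-2 cells, measured by a cell viability assay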
Description: SANGER: Inhibition of human OS-RC-2 cell growth in a cell viability assay.

RCC10RGB = type: functional, cell-based, Homo sapiens; settings: Homo sapiens, RCC10RGB;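 note: growth inhibition of human RCC10RGB cells, read out by a cell viability assay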
Description: SANGER: Inhibition of human RCC10RGB cell growth in a cell viability assay.

SBC-1 = type: functional, cell-based, Homo sapiens; settings: Homo sapiens, SBC-1;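 note: cell viability assay measuring growth inhibition of the SBC-1 cell line, IC50 being the concentration that halves growth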
Description: SANGER: Inhibition of human SBC-1 cell growth in a cell viability assay.

SF-268 = type: functional, cell-based, Homo sapiens; settings: Homo sapiens, SF-268;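 note: growth inhibition of SF-268 cells determined with a cell viability assay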
Description: SANGER: Inhibition of human SF268 cell growth in a cell viability assay.

SJSA-1 = type: functional, cell-based, Homo sapiens; settings: Homo sapiens, SJSA-1;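 note: growth inhibition of human SJSA-1 cells, read out through a cell viability measurement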
Description: SANGER: Inhibition of human SJSA-1 cell growth in a cell viability assay.

SK-MEL-2 = type: functional, cell-based, Homo sapiens; settings: Homo sapiens, SK-MEL-2;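 note: growth inhibition of human SK-MEL-2 cells measured with a cell viability assay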
Description: SANGER: Inhibition of human SK-MEL-2 cell growth in a cell viability assay.

SW872 = type: functional, cell-based, Homo sapiens; settings: Homo sapiens, SW872;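 note: growth inhibition of SW872 cells, read out by a viability assay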
Description: SANGER: Inhibition of human SW872 cell growth in a cell viability assay.

ALL-PO = type: functional, cell-based, Homo sapiens; settings: Homo sapiens, ALL-PO;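 note: growth inhibition of ALL-PO cells, read out by a cell viability assay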
Description: SANGER: Inhibition of human ALL-PO cell growth in a cell viability assay.

Becker = type: functional, cell-based, Homo sapiens; settings: Homo sapiens, Becker;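 note: growth inhibition of Becker cells, read out with a cell viability assay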
Description: SANGER: Inhibition of human Becker cell growth in a cell viability assay.

CGTH-W-1 = type: functional, cell-based, Homo sapiens; settings: Homo sapiens, CGTH-W-1;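 note: growth inhibition of human CGTH-W-1 cells measured by cell viability assay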
Description: SANGER: Inhibition of human CGTH-W-1 cell growth in a cell viability assay.

SMILES: O=S(=O)(O)c1ccc2cc(/N=N/c3cc(S(=O)(=O)O)c4cccnc4c3O)ccc2c1
- IC50 (COLO-800): > 16 µM
- IC50 (COLO-824): > 16 µM
- IC50 (COR-L88): > 16 µM
- IC50 (CW-2): > 16 µM
- IC50 (DB): > 16 µM
- IC50 (ES7): > 16 µM
- IC50 (EW-11): > 16 µM
- IC50 (EW-13): 5.17 µM
- IC50 (GI-ME-N): > 16 µM
- IC50 (GOTO): > 16 µM
- IC50 (GR-ST): > 16 µM
- IC50 (HCC2218): > 16 µM
- IC50 (HCE-T): > 16 µM
- IC50 (HD-MY-Z): > 16 µM
- IC50 (HH): > 16 µM
- IC50 (HT-144): > 16 µM
- IC50 (K562): > 16 µM
- IC50 (KM-H2): > 16 µM
- IC50 (KNS-42): > 16 µM
- IC50 (KP-N-YS): > 16 µM
- IC50 (LB2241-RCC): > 16 µM
- IC50 (Lu-65): > 16 µM
- IC50 (LXF-289 cell line): > 16 µM
- IC50 (MHH-NB-11): > 16 µM
- IC50 (MLMA): > 16 µM
- IC50 (MMAC-SF): > 16 µM
- IC50 (MPP-89): > 16 µM
- IC50 (MSTO-211H): > 16 µM
- IC50 (NB5): > 16 µM
- IC50 (NCI-H1304): > 16 µM
- IC50 (NCI-H1838): > 16 µM
- IC50 (NCI-H209): > 16 µM
- IC50 (NCI-H23): > 16 µM
- IC50 (NCI-H446): > 16 µM
- IC50 (NCI-H747): > 16 µM
- IC50 (NCI-N87): > 16 µM
- IC50 (SNU1): > 16 µM
- IC50 (SNU-5): > 16 µM
- IC50 (NH-12): > 16 µM
- IC50 (OMC-1): > 16 µM
- IC50 (OS-RC-2): > 16 µM
- IC50 (RCC10RGB): > 16 µM
- IC50 (SBC-1): > 16 µM
- IC50 (SF-268): > 16 µM
- IC50 (SJSA-1): > 16 µM
- IC50 (SK-MEL-2): > 16 µM
- IC50 (SW872): > 16 µM
- IC50 (ALL-PO): > 16 µM
- IC50 (Becker): > 16 µM
- IC50 (CGTH-W-1): > 16 µM
